From US20220106282A1, “TREATMENT FOR BREAST CANCER, INCLUDING TRIPLE-NEGATIVE BREAST CANCER” (priority 2018, published 2022)
“And” between values parts separate entries of the source, which are not always exact repeats. Equal values may be shown once. Marks after values point to notes of the source that are not given here.

Columns and labels:
ovariectomized rats = assay: Biochemical parameters of ovariectomized rats; format: in vivo, rat; conditions: ovariectomised rats
[1] = tested on: patients having metastases spread into axillary lymph nodes; assay: Chemotherapy of patients with axillary lymph node metastases; format: in vivo, human
[2] = tested on: normal human skin fibroblasts; assay: Growth of normal human skin fibroblasts (nonspecific effects); format: cell-based; conditions: concentration of 20 μg/ml; cells having no estrogen receptors
Description: The cells were seeded on Carrel vials at 50×10^4 cells per flask. To study the proliferative activity of the cells under conditions of sulfatase inhibition, 24 […], and then these tumor cell lines were incubated for various periods of time (24 to 72 hrs). The inhibitor was dissolved in DMSO. […] To exclude the cytotoxic effect of DMSO, a control sample comprising DMSO without sulfatase inhibitor was prepared. To exclude nonspecific detrimental effects of the compounds, normal human skin fibroblasts were used. Then the cells were detached with the versene-trypsin solution (Biolot), plated onto Carrel vials containing a fresh complete culture medium. The cells were counted when untreated control cells reached the maximum cell density per unit of surface area of a culture flask (monolayer), and their number was set as 100%. The proliferative activity of all of the studied cell cultures exposed to sulfatase inhibitors was determined in triplicate.

[3] = tested on: breast tumors in female FVB mice transgenic for HER-2/neu; assay: Antitumor activity on model of multiple breast tumors in HER-2/neu transgenic mice; conditions: for % of change from baseline (average total tumor volume) / % of change to the initial value (average tumor volume): Day 27 vs Day −1; for Average volume of new tumors, % less than that of the control group: end of observation; for Absolute number of new tumors / Frequency of tumor stabilizations: end of study; for Frequency of tumor stabilizations: volume not increased by more than 20%; for Average volume of new tumors at the end of the observation period (M): listed as medicament
Description: Two adenocarcinoma subtypes can be differentiated, in particular ER+, PR−, and ER−, PR− [2].
The study was carried out in female FVB mice transgenic for HER-2/neu by conventional category; the strain was obtained from the mouse bank Charles River Laboratories (Italy). At the beginning of the study the animals were 21-41 weeks old having weight of 25 to 30 g.
The study medicament was administered i.g. using a metal atraumatic gavage (with the procedure corresponds to the oral route of administration in clinical settings). The medicament was administered in a single daily dose (20 mg/kg of body weight) and 5-fold daily dose of 100 mg/kg of body weight. Ex tempore solutions of the medicament for administration were prepared in olive oil (refined olive oil supplemented with unrefined extra virgin olive oil available under Global Village “Clasico” trademark, lot L:183351116, expiry date 26 Apr. 2020, BAIEO, Spain). The administered volume was 0.1 ml per 10 g of a mouse body weight (0.2 ml of a ready-to-use formulation for a mouse of 20 g). The medicament administration was started 24 hours after the randomization. The duration of the administration course was 27-28 days.
This dose corresponds to a human daily dose of 20 mg/kg.
The control groups were given the olive oil (placebo).
The evaluation criteria included the clinical observation data, animals body weights, time of death (if applicable), tumor growth over time, pathomorphological examination data (verification of a neoplasm during autopsy, assessment of toxic effects by macroscopic presentation of changes in the internal organs).
The animals body weights were recorded before the first administration of the medicaments and then twice per week using a verified high-speed electronic laboratory balance Ohaus Scout Pro (USA) with a maximum load of 2000 g and a measurement step of 0.1 g.
Macroscopically detectable tumor nodes were measured in animals once per week during weighing process. Two linear dimensions including the largest one and the largest rectangular to the former were recorded for each of the nodes. The largest dimension was taken as a length (a) and the second dimension as a width (b) of the tumor nodes. A tumor volume was calculated by the expression as follows: […]
The efficacy of the therapy was assessed by recording a change in the average tumor volume, tumor growth inhibition (TGI), and the average total tumor volumes and its change over time in each of the mice.
The percent of tumor growth inhibition was calculated by the expression as follows:
TGI=(Vctrl−Vexp)/Vctrl×100(%),
where Vctrl is an average tumor volume in a control group, and Vexp is an average tumor volume in an experimental group.
The primary data from individual forms were transferred to Microsoft Excel 2007 books. The group arithmetic average (M) and standard deviation (m) were calculated for all quantitative data. The statistical analysis was performed using the statistical software GraphPad Prism 6.0. The differences between the groups were assessed using ANOVA regression analysis and the Fisher's exact test.

[4] = tested on: passaged human tumor of triple-negative breast cancer; assay: Animal models with passaged human triple-negative breast tumor; format: in vivo

SMILES: C[C@H]1Oc2cc(OS(N)(=O)=O)ccc2[C@H]2CC[C@]3(C)C(=O)CCC[C@H]3[C@H]21 [compound of formula (1), 3-O-sulphamoyloxy-7β-methyl-D-homo-6-oxa-8α-estra-1,3,5(10)-trien-17a-one]
- Uterotropic activity (ovariectomized rats): no uterotropic activity
- Uterus weight (ovariectomized rats; medicament 5 mg/kg bw): 33 ± 3 mg/100 g bw
- Overall survival rate ([1]; as compared to the Tamoxifen treated group): increase the overall survival rate
- Prolongation of recurrence-free survival rate ([1]; as compared to the untreated group): 11%
- Growth of human skin fibroblasts [2]: does not influence the growth
- Average total volume of tumors in mice (M) ([3]; 20 mg/kg i.g. daily, Day 6): 0.86 cm^3
- Average volume of tumors present at the beginning of the experiment (M) ([3]; 20 mg/kg i.g. daily, Day 6): 0.32 cm^3
- Relative change of the average total volume of tumors to that of Day −1 (M) ([3]; 20 mg/kg i.g. daily, Day 6): 20%
- TGI (average total tumor volume) ([3]; 20 mg/kg i.g. daily, Day 6): −26%
- TGI (average tumor volume) ([3]; 20 mg/kg i.g. daily, Day 6): −7%
- Average total volume of tumors in mice (M) ([3]; 20 mg/kg i.g. daily, Day 13): 1.04 cm^3
- Average volume of tumors present at the beginning of the experiment (M) ([3]; 20 mg/kg i.g. daily, Day 13): 0.39 cm^3
- Relative change of the average total volume of tumors to that of Day −1 (M) ([3]; 20 mg/kg i.g. daily, Day 13): 38** %
- TGI (average total tumor volume) ([3]; 20 mg/kg i.g. daily, Day 13): 19%
- TGI (average tumor volume) ([3]; 20 mg/kg i.g. daily, Day 13): 30%
- Average total volume of tumors in mice (M) ([3]; 20 mg/kg i.g. daily, Day 20): 1.61 cm^3
- Average volume of tumors present at the beginning of the experiment (M) ([3]; 20 mg/kg i.g. daily, Day 20): 0.6 cm^3
- Relative change of the average total volume of tumors to that of Day −1 (M) ([3]; 20 mg/kg i.g. daily, Day 20): 101** %
- TGI (average total tumor volume) ([3]; 20 mg/kg i.g. daily, Day 20): −7%
- TGI (average tumor volume) ([3]; 20 mg/kg i.g. daily, Day 20): 9%
- Average total volume of tumors in mice (M) ([3]; 20 mg/kg i.g. daily, Day 27): 2.19 cm^3
- Average volume of tumors present at the beginning of the experiment (M) ([3]; 20 mg/kg i.g. daily, Day 27): 0.81 cm^3
- Relative change of the average total volume of tumors to that of Day −1 (M) ([3]; 20 mg/kg i.g. daily, Day 27): 212** %
- TGI (average total tumor volume) ([3]; 20 mg/kg i.g. daily, Day 27): −7%
- TGI (average tumor volume) ([3]; 20 mg/kg i.g. daily, Day 27): 9%
- % of change from baseline (average total tumor volume) ([3]; 20 mg/kg i.g. daily): 204%
- % of change to the initial value (average tumor volume) ([3]; 20 mg/kg i.g. daily): 200%
- Average total volume of tumors in mice (M) ([3]; 20 mg/kg i.g. daily, Day −1): 0.72 cm^3
- Average volume of tumors present at the beginning of the experiment (M) ([3]; 20 mg/kg i.g. daily, Day −1): 0.27 cm^3
- Relative change of the average total volume of tumors to that of Day −1 (M) ([3]; 20 mg/kg i.g. daily, Day −1): 0%
- TGI (average total tumor volume) ([3]; 20 mg/kg i.g. daily, Day −1): −71%
- TGI (average tumor volume) ([3]; 20 mg/kg i.g. daily, Day −1): −50%
- Average volume of new tumors, % less than that of the control group ([3]; 20 mg/kg i.g. daily): 18%
- Absolute number of new tumors ([3]; 20 mg/kg i.g. daily): 29
- Frequency of tumor stabilizations ([3]; 20 mg/kg i.g. daily): 19%
- Average volume of new tumors at the end of the observation period (M) ([3]; 20 mg/kg i.g. daily): 0.27±0.05 cm^3 and 0.27 cm^3
- Average total volume of tumors in mice (M) ([3]; 100 mg/kg i.g. daily, Day 6): 0.94 cm^3
- Average volume of tumors present at the beginning of the experiment (M) ([3]; 100 mg/kg i.g. daily, Day 6): 0.38 cm^3
- Relative change of the average total volume of tumors to that of Day −1 (M) ([3]; 100 mg/kg i.g. daily, Day 6): 26%
- TGI (average total tumor volume) ([3]; 100 mg/kg i.g. daily, Day 6): −38%
- TGI (average tumor volume) ([3]; 100 mg/kg i.g. daily, Day 6): −27%
- Average total volume of tumors in mice (M) ([3]; 100 mg/kg i.g. daily, Day 13): 1.15 cm^3
- Average volume of tumors present at the beginning of the experiment (M) ([3]; 100 mg/kg i.g. daily, Day 13): 0.46 cm^3
- Relative change of the average total volume of tumors to that of Day −1 (M) ([3]; 100 mg/kg i.g. daily, Day 13): 68** %
- TGI (average total tumor volume) ([3]; 100 mg/kg i.g. daily, Day 13): 11%
- TGI (average tumor volume) ([3]; 100 mg/kg i.g. daily, Day 13): 18%
- Average total volume of tumors in mice (M) ([3]; 100 mg/kg i.g. daily, Day 20): 1.36 cm^3
- Average volume of tumors present at the beginning of the experiment (M) ([3]; 100 mg/kg i.g. daily, Day 20): 0.55 cm^3
- Relative change of the average total volume of tumors to that of Day −1 (M) ([3]; 100 mg/kg i.g. daily, Day 20): 139* %
- TGI (average total tumor volume) ([3]; 100 mg/kg i.g. daily, Day 20): 10%
- TGI (average tumor volume) ([3]; 100 mg/kg i.g. daily, Day 20): 17%
- Average total volume of tumors in mice (M) ([3]; 100 mg/kg i.g. daily, Day 27): 1.74 cm^3
- Average volume of tumors present at the beginning of the experiment (M) ([3]; 100 mg/kg i.g. daily, Day 27): 0.7 cm^3
- Relative change of the average total volume of tumors to that of Day −1 (M) ([3]; 100 mg/kg i.g. daily, Day 27): 198** %
- TGI (average total tumor volume) ([3]; 100 mg/kg i.g. daily, Day 27): 15%
- TGI (average tumor volume) ([3]; 100 mg/kg i.g. daily, Day 27): 21%
- % of change from baseline (average total tumor volume) ([3]; 100 mg/kg i.g. daily): 102%
- % of change to the initial value (average tumor volume) ([3]; 100 mg/kg i.g. daily): 106%
- Average total volume of tumors in mice (M) ([3]; 100 mg/kg i.g. daily, Day −1): 0.86 cm^3
- Average volume of tumors present at the beginning of the experiment (M) ([3]; 100 mg/kg i.g. daily, Day −1): 0.34 cm^3
- Relative change of the average total volume of tumors to that of Day −1 (M) ([3]; 100 mg/kg i.g. daily, Day −1): 0%
- TGI (average total tumor volume) ([3]; 100 mg/kg i.g. daily, Day −1): −105%
- TGI (average tumor volume) ([3]; 100 mg/kg i.g. daily, Day −1): −89%
- Average volume of new tumors, % less than that of the control group ([3]; 100 mg/kg i.g. daily): 39%
- Absolute number of new tumors ([3]; 100 mg/kg i.g. daily): 25
- Frequency of tumor stabilizations ([3]; 100 mg/kg i.g. daily): 16%
- Average volume of new tumors at the end of the observation period (M) ([3]; 100 mg/kg i.g. daily): 0.20±0.05 cm^3 and 0.20 cm^3
- Tumor growth inhibition compared to Tamoxifen ([3]; FVB mice transgenic for HER-2/neu with breast tumors): inhibits tumor growth to the same extent as clinically approved Tamoxifen
- Signs of toxic damage to the internal organs at autopsy ([3]; end of the experiment, 27-28 days of administration): No specific signs of toxic damage to the internal organs were detected
- Action compared to Tamoxifen and Letrozole [4]: better action
